Experimental data published in patent US20120004166A1, “ARYLOXYALKYLENE-SUBSTITUTED HYDROXYPHENYLHEXYNOIC ACIDS, PROCESS FOR PREPARATION THEREOF AND USE THEREOF AS A MEDICAMENT” (SANOFI, priority 2010, published 2012).
pEC50: −log10 of the molar value.

Target: T1, GPCR GPR40 (Rattus norvegicus, UniProt Q8K3T4)
T1 construct: expressed in transfected cells; host or cells: HEK293
Experiment: In vitro FLIPR assay with recombinant cells which express the GPCR GPR40
Format: cell-based
Conditions: recombinant HEK293 cells expressing rat GPR40; agonist-induced change in intracellular Ca2+ (Fluo-4, FLIPR); 100% = 10 μM linoleic acid
Description: In Vitro FLIPR Assay with Recombinant Cells which Express the GPCR GPR40
Function-testing assays were performed by means of the FLIPR technique (“Fluorescence Imaging Plate Reader”, Molecular Devices Corp.). To this end, agonist-induced changes in the intracellular concentration of Ca^2+ were determined in recombinant HEK293 cells which expressed the GPCR GPR40 (species: rat). For the studies, cells were sown into 96-well microtiter plates (60 000 cells/well) and left to grow overnight. The medium was removed and the cells were incubated in buffer which contained the fluorescent dye Fluo-4. After this loading with dye, the cells were washed, test substance was added and changes in the intracellular Ca^2+ concentration were measured in the FLIPR unit. Results were presented as the percentage change relative to the control (0%: no test substance added; 100%: 10 μM reference agonist linoleic acid added) and used to calculate dose/effect curves, and EC50 values were determined.

T1 sequence (Q8K3T4 whole entry): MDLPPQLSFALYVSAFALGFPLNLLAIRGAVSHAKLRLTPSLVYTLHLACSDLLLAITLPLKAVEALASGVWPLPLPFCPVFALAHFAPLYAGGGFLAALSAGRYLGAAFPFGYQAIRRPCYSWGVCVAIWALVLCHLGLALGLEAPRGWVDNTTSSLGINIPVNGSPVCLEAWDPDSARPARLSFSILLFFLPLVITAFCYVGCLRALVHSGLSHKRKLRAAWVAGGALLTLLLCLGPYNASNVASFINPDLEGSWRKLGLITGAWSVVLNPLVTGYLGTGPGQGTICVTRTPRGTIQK

Row | SMILES | pEC50
1 | CC#CC(CC(=O)O)c1ccc(OCCOc2ccccc2F)cc1 (stereo not drawn) [Example 18, 3-{4-[2-(2-Fluorophenoxy)ethoxy]phenyl}hex-4-ynoic acid] | 6.34
2 | CC#CC(CC(=O)O)c1ccc(OCC[C@H](C)Oc2ccccc2C(F)(F)F)cc1 (stereo partly drawn) [Example 30, 3-{4-[(S)-3-(2-Trifluoromethylphenoxy)butoxy]phenyl}hex-4-ynoic acid] | 6.85
3 | CC#CC(CC(=O)O)c1ccc(OCCC(C)Oc2ccc(C(F)(F)F)cc2)cc1 (single isomer, unassigned) [Example 24, 3-{4-[(R or S)-3-(4-Trifluoromethylphenoxy)butoxy]phenyl}hex-4-ynoic acid] | 6.01
4 | CC#CC(CC(=O)O)c1ccc(OCC(CC)COc2cccc(C(C)(C)C)c2)cc1 (stereo not drawn) [Example 43, 3-{4-[2-(3-tert-Butylphenoxymethyl)butoxy]phenyl}hex-4-ynoic acid] | 5.69
5 | CC#CC(CC(=O)O)c1ccc(OCC[C@H](C)Oc2cccc(C)c2)cc1 (stereo partly drawn) [Example 28, 3-[4-((S)-3-m-Tolyloxybutoxy)phenyl]hex-4-ynoic acid] | 7.30
6 | CC#CC(CC(=O)O)c1ccc(OCC[C@H](C)Oc2ccc(C(F)(F)F)cc2Cl)cc1 (stereo partly drawn) [Example 32, 3-{4-[(S)-3-(2-Chloro-4-trifluoromethylphenoxy)butoxy]phenyl}hex-4-ynoic acid] | 6.11
7 | CC#CC(CC(=O)O)c1ccc(OCC(CC)COc2ccc(C(F)(F)F)cc2)cc1 (stereo not drawn) [Example 42, 3-{4-[2-(4-Trifluoromethylphenoxymethyl)butoxy]phenyl}hex-4-ynoic acid] | 5.75
8 | CC#CC(CC(=O)O)c1ccc(OCC[C@@H](C)Oc2cccc(C)c2)cc1 (stereo partly drawn) [Example 27, 3-[4-((R)-3-m-Tolyloxybutoxy)phenyl]hex-4-ynoic acid] | 7.30
9 | CC#CC(CC(=O)O)c1ccc(OCC(C)COc2cc(C)ccc2C(C)C)cc1 (stereo not drawn) [Example 36, 3-{4-[3-(2-Isopropyl-5-methylphenoxy)-2-methylpropoxy]phenyl}hex-4-ynoic acid] | 5.80
10 | CC#CC(CC(=O)O)c1ccc(OC(C)CCOc2cccc(C(C)(C)C)c2)cc1 (stereo not drawn) [Example 33, 3-{4-[3-(3-tert-Butylphenoxy)-1-methylpropoxy]phenyl}hex-4-ynoic acid] | 5.79
11 | CC#CC(CC(=O)O)c1ccc(OCCOc2ccccc2OC)cc1 (stereo not drawn) [Example 21, 3-{4-[2-(2-Methoxyphenoxy)ethoxy]phenyl}hex-4-ynoic acid] | 6.10
12 | CC#CC(CC(=O)O)c1ccc(OCCOc2ccccc2Cl)cc1 (stereo not drawn) [Example 19, 3-{4-[2-(2-Chlorophenoxy)ethoxy]phenyl}hex-4-ynoic acid] | 6.74
13 | CC#CC(CC(=O)O)c1ccc(OCC[C@@H](C)Oc2ccc(C(F)(F)F)cc2Cl)cc1 (stereo partly drawn) [Example 31, 3-{4-[(R)-3-(2-Chloro-4-trifluoromethylphenoxy)butoxy]phenyl}hex-4-ynoic acid] | 6.19
14 | CC#CC(CC(=O)O)c1ccc(OCCC(C)Oc2ccc(C(F)(F)F)cc2)cc1 (single isomer, unassigned) [Example 23, 3-{4-[(S or R)-3-(4-Trifluoromethylphenoxy)butoxy]phenyl}hex-4-ynoic acid] | 6.68
15 | CC#CC(CC(=O)O)c1ccc(OCC[C@@H](C)Oc2ccccc2C(F)(F)F)cc1 (stereo partly drawn) [Example 29, 3-{4-[(R)-3-(2-Trifluoromethylphenoxy)butoxy]phenyl}hex-4-ynoic acid] | 6.77
16 | CC#CC(CC(=O)O)c1ccc(OCC(C)COc2cc(C(C)C)ccc2C)cc1 (stereo not drawn) [Example 39, 3-{4-[3-(5-Isopropyl-2-methylphenoxy)-2-methylpropoxy]phenyl}hex-4-ynoic acid] | 5.49
17 | CC#CC(CC(=O)O)c1ccc(OCCC(C)Oc2cccc(C)c2)cc1 (stereo not drawn) [Example 26, 3-[4-(3-m-Tolyloxybutoxy)phenyl]-hex-4-ynoic acid] | 7.30

Other lines, results leading:

Row | pEC50 | SMILES
18 | 7.10 | CC#CC(CC(=O)O)c1ccc(OCCOc2ccccc2C)cc1 (stereo not drawn) [Example 20, 3-{4-[2-o-Tolyloxyethoxy]phenyl}hex-4-ynoic acid]
19 | 5.12 | CC#CC(CC(=O)O)c1ccc(OCC(COc2ccc(C(F)(F)F)cc2Cl)OCc2ccccc2)cc1 (stereo not drawn) [Example 48, 3-{4-[2-Benzyloxy-3-(2-chloro-4-trifluoromethylphenoxy)propoxy]phenyl}hex-4-ynoic acid]
20 | 6.21 | CC#CC(CC(=O)O)c1ccc(OCCCOc2cc(C(F)(F)F)ccc2Cl)cc1 (stereo not drawn) [Example 9, 3-{4-[3-(2-Chloro-5-trifluoromethylphenoxy)propoxy]phenyl}hex-4-ynoic acid]
21 | 7.30 | CC#CC(CC(=O)O)c1ccc(OCCOc2cccc(C(C)(C)C)c2)cc1 (stereo not drawn) [Example 2, 3-{4-[2-(3-tert-Butylphenoxy)ethoxy]phenyl}hex-4-ynoic acid]
22 | 7.30 | CC#CC(CC(=O)O)c1ccc(OCCOc2ccccc2C(F)(F)F)cc1 (stereo not drawn) [Example 22, 3-{4-[2-(2-Trifluoromethylphenoxy)ethoxy]phenyl}hex-4-ynoic acid]
23 | 6.82 | CC#CC(CC(=O)O)c1ccc(OCC(CO)COc2ccc(C#N)c(Cl)c2)cc1 (stereo not drawn) [Example 49, 3-{4-[3-(3-Chloro-4-cyanophenoxy)-2-hydroxymethylpropoxy]phenyl}hex-4-ynoic acid]
24 | 7.10 | CC#CC(CC(=O)O)c1ccc(OCCCOc2ccc(C(F)(F)F)cc2)cc1 (stereo not drawn) [Example 11, 3-{4-[3-(4-Trifluoromethylphenoxy)propoxy]phenyl}hex-4-ynoic acid]
25 | 6.14 | CC#CC(CC(=O)O)c1ccc(OCC(C)COc2ccccc2C(F)(F)F)cc1 (stereo not drawn) [Example 38, 3-{4-[2-methyl-3-(2-trifluoromethylphenoxy)propoxy]phenyl}hex-4-ynoic acid]
26 | 5.70 | CC#CC(CC(=O)O)c1ccc(OC(C)CCOc2ccc(C(F)(F)F)cc2)cc1 (stereo not drawn) [Example 25, 3-{4-[1-Methyl-3-(4-trifluoromethylphenoxy)propoxy]phenyl}hex-4-ynoic acid]
27 | 6.36 | CC#CC(CC(=O)O)c1ccc(OCCCOc2cccc(C(C)(C)C)c2)cc1 (stereo not drawn) [Example 1, 3-{4-[3-(3-tert-Butylphenoxy)propoxy]phenyl}hex-4-ynoic acid]
28 | 7.15 | CC#CC(CC(=O)O)c1ccc(OCCCOc2cccc(C)c2)cc1 (stereo not drawn) [Example 12, 3-{4-[3-m-Tolyloxypropoxy]phenyl}hex-4-ynoic acid]
29 | 6.77 | CC#CC(CC(=O)O)c1ccc(OCCCOc2ccccc2C(F)(F)F)cc1 (stereo not drawn) [Example 6, 3-{4-[3-(2-Trifluoromethylphenoxy)propoxy]phenyl}hex-4-ynoic acid]
30 | 6.70 | CC#CC(CC(=O)O)c1ccc(OCC(COc2ccc(C(F)(F)F)cc2Cl)OC)cc1 (stereo not drawn) [Example 53, 3-{4-[3-(2-chloro-4-trifluoromethylphenoxy)-2-methoxypropoxy]phenyl}hex-4-ynoic acid]
31 | 5.96 | CC#CC(CC(=O)O)c1ccc(OCC(C)COc2cccc(C(C)(C)C)c2)cc1 (stereo not drawn) [Example 35, 3-{4-[3-(3-tert-Butylphenoxy)-2-methylpropoxy]phenyl}hex-4-ynoic acid]
32 | 6.14 | CC#CC(CC(=O)O)c1ccc(OCCCOc2cccc(C(F)(F)F)c2Cl)cc1 (stereo not drawn) [Example 7, 3-{4-[3-(2-Chloro-3-trifluoromethylphenoxy)propoxy]phenyl}hex-4-ynoic acid]
33 | 6.44 | CC#CC(CC(=O)O)c1ccc(OCCOc2ccccc2)cc1 (stereo not drawn) [Example 17, 3-{4-[2-Phenoxyethoxy]phenyl}hex-4-ynoic acid]
34 | 5.16 | CC#CC(CC(=O)O)c1ccc(OCC(CCC)COc2cccc(C(C)(C)C)c2)cc1 (stereo not drawn) [Example 45, 3-{4-[2-(3-tert-Butylphenoxymethyl)pentyloxy]phenyl}hex-4-ynoic acid]
35 | 6.08 | CC#CC(CC(=O)O)c1ccc(OCC(C)COc2ccc(Br)c(Cl)c2)cc1 (stereo not drawn) [Example 40, 3-{4-[3-(4-Bromo-3-chlorophenoxy)-2-methylpropoxy]phenyl}hex-4-ynoic acid]
36 | 6.00 | CC#CC(CC(=O)O)c1ccc(OCC(O)COc2ccc(C(F)(F)F)cc2Cl)cc1 (stereo not drawn) [Example 52, 3-{4-[3-(2-Chloro-4-trifluoromethylphenoxy)-2-hydroxypropoxy]phenyl}hex-4-ynoic acid]
37 | 6.40 | CC#CC(CC(=O)O)c1ccc(OCCCOc2cc(C(F)(F)F)cc(C(F)(F)F)c2)cc1 (stereo not drawn) [Example 5, 3-{4-[3-(3,5-bis(Trifluoromethyl)phenoxy)propoxy]phenyl}hex-4-ynoic acid]
38 | 6.10 | CC#CC(CC(=O)O)c1ccc(OCC(C)(C)COc2ccc(C(F)(F)F)cc2)cc1 (stereo not drawn) [Example 41, 3-{4-[2,2-dimethyl-3-(4-trifluoromethylphenoxy)propoxy]phenyl}hex-4-ynoic acid]
39 | 6.26 | CC#CC(CC(=O)O)c1ccc(OCCOc2ccc(C(F)(F)F)nc2)cc1 (stereo not drawn) [Example 10, 3-{4-[2-(6-Trifluoromethylpyridin-3-yloxy)ethoxy]phenyl}hex-4-ynoic acid]
40 | 5.22 | CC#CC(CC(=O)O)c1ccc(OCC(C)COc2ccc(C(C)(C)C)cc2Cl)cc1 (stereo not drawn) [Example 37, 3-{4-[3-(4-tert-Butyl-2-chlorophenoxy)-2-methylpropoxy]phenyl}hex-4-ynoic acid]
41 | 5.29 | CC#CC(CC(=O)O)c1ccc(OCC(CCC)COc2ccc(C(F)(F)F)cc2)cc1 (stereo not drawn) [Example 44, 3-{4-[2-(4-Trifluoromethylphenoxymethyl)pentyloxy]phenyl}hex-4-ynoic acid]
42 | 6.09 | CC#CC(CC(=O)O)c1ccc(OCC(C)COc2ccc(C(F)(F)F)cc2)cc1 (stereo not drawn) [Example 34, 3-{4-[2-Methyl-3-(4-trifluoromethylphenoxy)propoxy]phenyl}hex-4-ynoic acid]
